Measured values taken from PubChem BioAssay (NCI).
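Protocol summary: plate cells (96-well), add compound at 5 concentrations, incubate 48 h, interpolate endpoints linearly. Abbreviation: GI50, concentration required for 50% inhibition of growth. TGI is the concentration that stops growth completely.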

Legend:
Experiment in all cases: DTP human tumour cell line panel, 48 h
MDA-MB-231 breast = test system: MDA-MB-231 breast
OVCAR-5 ovarian = test system: OVCAR-5 ovarian
SK-OV-3 ovarian = test system: SK-OV-3 ovarian
BT-549 breast = test system: BT-549 breast
NCI-H226 lung = test system: NCI-H226 lung
MOLT-4 leukemia = test system: MOLT-4 leukemia
SR leukemia = test system: SR leukemia
RPMI-8226 leukemia = test system: RPMI-8226 leukemia
UACC-62 melanoma = test system: UACC-62 melanoma
T-47D breast = test system: T-47D breast

Structure (SMILES) | TGI (MDA-MB-231 breast) [µM] | TGI (OVCAR-5 ovarian) [µM] | TGI (SK-OV-3 ovarian) [µM] | TGI (BT-549 breast) [µM] | TGI (NCI-H226 lung) [µM] | TGI (MOLT-4 leukemia) [µM] | TGI (SR leukemia) [µM] | TGI (RPMI-8226 leukemia) [µM] | TGI (UACC-62 melanoma) [µM] | TGI (T-47D breast) [µM] | GI50 (OVCAR-5 ovarian) [µM] | GI50 (SK-OV-3 ovarian) [µM] | GI50 (UACC-62 melanoma) [µM] | GI50 (T-47D breast) [µM]
S=c1[nH]nc(CCCCCCCCc2n[nH]c(=S)o2)o1 | > 100 | > 100 | > 100 | > 100 | > 100 | > 100 |  |  |  |  |  |  |  | 
COC1OC(C(=O)O)C2OC(C)(C)OC12 (configuration not stated) | > 100 | > 100 | > 100 | > 100 | > 100 | > 100 | > 100 | > 100 | > 100 |  |  |  |  | 
Cc1cc2c(cc1Cl)Sc1n[nH]c(=O)n1S2(=O)=O | > 100 | > 100 | > 100 | > 100 | > 100 | > 100 |  |  | > 100 |  |  |  |  | 
Cc1ccccc1Nc1nc2ccccc2nc1NS(=O)(=O)c1ccccc1 | > 100 | > 100 | > 100 |  | > 100 | > 100 | > 100 | > 100 | > 100 | > 100 |  |  |  | 
Cc1cc(Nc2ccc(Cl)cc2)nc(NCCCNc2ccnc3cc(Cl)ccc23)n1 |  | 3.09 | 3.01 |  |  |  |  |  | 3.58 | 3.81 | 1.66 | 1.65 | 1.79 | 1.83
COC(=O)CC1CC2(C(=O)OC)c3[nH]c4ccccc4c3CCN2C1=O (configuration not stated) |  | > 100 | > 100 |  | > 100 | > 100 | > 100 |  | > 100 |  |  |  |  | 
COC(=O)[C@@H]1COC(=O)N1 | > 100 | > 100 | > 100 | > 100 | > 100 | > 100 |  |  | > 100 | > 100 |  |  |  | 
O=C(NCc1ccccc1Cl)c1c(O)c2ccccc2[nH]c1=O | 45.3 | > 100 |  | > 100 | > 100 | > 100 | > 100 | > 100 |  |  |  |  |  | 
O=C1c2ccccc2C(=O)c2sc(Nc3cc(Cl)ccc3Cl)nc21 | 5.56 | 45.6 | 30.3 |  | 44.7 | > 30.4 | > 100 | 22.6 | 6.27 | 34.3 |  |  |  | 
C[n+]1c(-c2ccc(/C=N/NC(=O)C(=O)N/N=C/c3ccc(-c4cn5ccccc5[n+]4C)cc3)cc2)cn2ccccc21 | > 100 | > 100 | > 100 | > 100 | > 100 | > 100 |  | > 100 | > 100 |  |  |  |  | 
